Data on eight molecules can be found in patent US20110136666A1, “CHEMICAL COMPOUNDS” (SYNGENTA CROP PROTECTION, INC., priority 2008, published 2011).

What all share (format): in vivo
Test [1] relates to Alopecurus myosuroides (ALOMY). In words: Pre-emergence biological efficacy, glasshouse pot test. The settings on record: 312 h, after 13 days, 100=total damage, 0=no damage, read-out: Percentage damage caused to weed species ALOMY. Here is the method:
(§1) Seeds of Alopecurus myosuroides (ALOMY), Setaria faberi (SETFA), Echinochloa crus-galli (ECHCG), Solanum nigrum (SOLNI), Amaranthus retroflexus (AMARE) and Ipomea hederaceae (IPOHE) were sown in standard soil in pots. After cultivation for one day under controlled conditions in a glasshouse (at 24/16° C., day/night; 14 hours light; 65% humidity), the plants were sprayed with an aqueous spray solution derived from the formulation of the technical active ingredient in acetone/water (50:50) solution containing 0.5% Tween 20 (polyoxyethylene sorbitan monolaurate, CAS RN 9005-64-5) to give a final dose of 250 or 1000 g/ha of test compound.
(§2) The test plants were then grown under controlled conditions in the glasshouse (at 24/16° C., day/night; 14 hours light; 65% humidity) and watered twice daily. After 13 days the test was evaluated (100=total damage to plant; 0=no damage to plant).

Test [2] concerns Amaranthus retroflexus (AMARE). Described as above. The note with it: 312 h, after 13 days, 100=total damage, 0=no damage, read-out: Percentage damage caused to weed species AMARE. Here is the method: as §1, §2
Test [3] relates to Echinochloa crus-galli (ECHCG). The description is as above. The settings on record: 312 h, after 13 days, 100=total damage, 0=no damage, read-out: Percentage damage caused to weed species ECHCG. How it is done: as §1, §2
In test [4] the test system is Ipomea hederaceae (IPOHE). The test is described as above. The note with it: Ipomoea hederacea, 312 h, after 13 days, 100=total damage, 0=no damage, read-out: Percentage damage caused to weed species IPOHE. Here is the method: as §1, §2
In test [5] the test system is Setaria faberi (SETFA). Described as above. The settings on record: 312 h, after 13 days, 100=total damage, 0=no damage, read-out: Percentage damage caused to weed species SETFA. Here is the method: as §1, §2
The subject of test [6] is Solanum nigrum (SOLNI). The test is described as above. The note with it: 312 h, after 13 days, 100=total damage, 0=no damage, read-out: Percentage damage caused to weed species SOLNI. How it is done:
as §1, §2

For test [7], the system named is Alopecurus myosuroides (ALOMY). The experiment in a line: Post-emergence biological efficacy, glasshouse pot test. The settings on record: 312 h, after 13 days, 100=total damage, 0=no damage, read-out: Percentage damage caused to weed species ALOMY. Here is the method:
as §1, with “8 days” for “one day”
(§3) The test plants were then grown on under controlled conditions in a glasshouse (at 24/16° C., day/night; 14 hours light; 65% humidity) and watered twice daily. After 13 days the test was evaluated (100=total damage to plant; 0=no damage to plant).

Test [8] relates to Amaranthus retroflexus (AMARE). The test is described as above. The note with it: 312 h, after 13 days, 100=total damage, 0=no damage, read-out: Percentage damage caused to weed species AMARE. Here is the method:
as §1, with “8 days” for “one day”
as §3

In test [9] the test system is Echinochloa crus-galli (ECHCG). Described as above. The note with it: 312 h, after 13 days, 100=total damage, 0=no damage, read-out: Percentage damage caused to weed species ECHCG. How it is done:
as §1, with “8 days” for “one day”
as §3

In test [10] the test system is Ipomea hederaceae (IPOHE). The test is described as above. The note with it: Ipomoea hederacea, 312 h, after 13 days, 100=total damage, 0=no damage, read-out: Percentage damage caused to weed species IPONE. Here is the method:
as §1, with “8 days” for “one day”
as §3

Test [11] has as its system Setaria faberi (SETFA). The description is as above. The settings on record: 312 h, after 13 days, 100=total damage, 0=no damage, read-out: Percentage damage caused to weed species SETFA. How it is done: as §1, with “8 days” for “one day”
as §3

Test [12] deals with Solanum nigrum (SOLNI). The test is described as above. The settings on record: 312 h, after 13 days, 100=total damage, 0=no damage, read-out: Percentage damage caused to weed species SOLNI. How it is done: as §1, with “8 days” for “one day”
as §3

Molecules are shown by their SMILES.

For the molecule `Nc1nc(-c2ccc(Cl)s2)nc(C(=O)O)c1Cl` [Compound 1-2, 4-amino-5-chloro-2-(5-chlorothiophen-2-yl)-pyrimidine-6-carboxylic acid], the pest or weed control at 1000 g/ha in test [1] was found to be 0%; in test [2], 100%; in test [3] it was 0%; in [4] it was 0%; in the test on Setaria faberi (SETFA) [5] it was 0%; in the test on Solanum nigrum (SOLNI) [6], 30%. Besides, the pest or weed control at 1000 g/ha in test [7] amounted to 10%; in [8], 100%; in test [9], 20%; in test [10], 60%; in the test on Setaria faberi (SETFA) [11], 50%; in the test on Solanum nigrum (SOLNI) [12], 80%.
On to `COC(=O)c1nc(-c2cccs2)nc(N)c1Cl` [Compound 2-1, 4-Amino-5-chloro-6-methoxycarbonyl-2-thiophen-2-ylpyrimidine], for which the pest or weed control at 1000 g/ha (in test [1]; in [2]; in [3]; in test [4]; in the test with Setaria faberi (SETFA) [5]; in the test with Solanum nigrum (SOLNI) [6]) was 0% each time. For the same molecule, the pest or weed control at 1000 g/ha stood at 0% in test [7]; 0% in test [8]; 0% in [9]; 50% in test [10]; 0% in the test on Setaria faberi (SETFA) [11]; 0% with Solanum nigrum (SOLNI) [12].
Turning to `COC(=O)c1nc(-c2ccc(Cl)s2)nc(N)c1Cl` [Compound 2-2, 4-Amino-5-chloro-2-(5-chlorothiophen-2-yl)-6-methoxycarbonyl pyrimidine], the pest or weed control at 1000 g/ha in [1] was found to be 0%; in test [2] it was 80%; in test [3], 0%; in test [4] it was 20%; with Setaria faberi (SETFA) [5] it was 0%; with Solanum nigrum (SOLNI) [6], 0%. The pest or weed control at 1000 g/ha amounted to 0% in [7]; 100% in [8]; 0% in test [9]; 70% in [10]; 0% in the test with Setaria faberi (SETFA) [11]; 90% in the test with Solanum nigrum (SOLNI) [12].
Regarding `COC(=O)c1nc(-c2ccc(C#N)s2)nc(N)c1Cl` [Compound 2-3, 4-Amino-5-chloro-2-(5-cyanothiophen-2-yl)-6-methoxycarbonyl pyrimidine], the pest or weed control at 1000 g/ha (in test [1]; in [2]; in test [3]; in test [4]; with Setaria faberi (SETFA) [5]; in the test on Solanum nigrum (SOLNI) [6]) was 0% in each case. Besides, the pest or weed control at 1000 g/ha (in test [7]; in test [8]; in test [9]; in test [10]; with Setaria faberi (SETFA) [11]; with Solanum nigrum (SOLNI) [12]) was 0% throughout.
`COC(=O)c1nc(-c2ccc(OC)s2)nc(N)c1Cl` [Compound 2-7, 4-Amino-5-chloro-6-methoxycarbonyl-2-(5-methoxythiophen-2-yl)-pyrimidine]: the pest or weed control at 1000 g/ha came out at 0% in [1]; 90% in [2]; 60% in test [3]; 20% in test [4]; 20% in the test on Setaria faberi (SETFA) [5]; 0% in the test on Solanum nigrum (SOLNI) [6]. Further, the pest or weed control at 1000 g/ha in test [7] stood at 0%; in [8], 100%; in test [9], 80%; in test [10], 80%; in the test with Setaria faberi (SETFA) [11], 70%; in the test on Solanum nigrum (SOLNI) [12], 80%.
Take `COC(=O)c1nc(-c2ccc(C(C)=O)s2)nc(N)c1Cl` [Compound 2-9, 4-Amino-5-chloro-6-methoxycarbonyl-2-(5-methylcarbonyl-thiophen-2-yl)-pyrimidine]: the pest or weed control at 250 g/ha (in test [1]; in [2]; in test [3]; in [4]; with Setaria faberi (SETFA) [5]; in the test with Solanum nigrum (SOLNI) [6]) was 0% throughout. For the same molecule, the pest or weed control at 250 g/ha (in [7]; in test [8]; in test [9]; in test [10]; in the test on Setaria faberi (SETFA) [11]; in the test with Solanum nigrum (SOLNI) [12]) was 0% in each case.
As for `COC(=O)c1nc(-c2ccsc2)nc(N)c1Cl` [Compound 2-16, 4-Amino-5-chloro-6-methoxycarbonyl-2-thiophen-3-ylpyrimidine], the pest or weed control at 250 g/ha in [1] was determined as 10%; in test [2], 90%; in [3], 0%; in test [4], 0%; in the test on Setaria faberi (SETFA) [5], 0%; with Solanum nigrum (SOLNI) [6], 30%. Further, the pest or weed control at 250 g/ha came out at 20% in [7]; 0% in test [8]; 0% in [9]; 40% in [10]; 0% in the test on Setaria faberi (SETFA) [11]; 0% in the test with Solanum nigrum (SOLNI) [12].
With `COC(=O)c1nc(-c2cscc2C)nc(N)c1Cl` [Compound 2-17, 4-Amino-5-chloro-6-methoxycarbonyl-2-(4-methylthiophen-3-yl)-pyrimidine], the pest or weed control at 250 g/ha in test [1] was found to be 0%; in test [2], 50%; in [3] it was 0%; in test [4], 0%; in the test on Setaria faberi (SETFA) [5] it was 0%; with Solanum nigrum (SOLNI) [6], 0%. The pest or weed control at 250 g/ha (in test [7]; in [8]; in test [9]; in test [10]; in the test with Setaria faberi (SETFA) [11]; in the test with Solanum nigrum (SOLNI) [12]) was 0% each time.
